Measured values taken from patent US5160727A, “Tumor cell sensitization method using quinazolinedione derivatives” (priority 1990, dated 1992).
pIC50: −log10 of the molar value. Where a name gives a salt, the structure may show the parent alone. Read-outs that look alike come from different tables or passages of the source.

How the values were obtained:
Format in all cases: cell-based, murine
P388S cells = assay: 72-hour growth inhibition of drug-sensitive P388S cells by anticancer drug alone or with modifier (Table I); conditions: for pIC50: Mus musculus, P388/S, 72 h, mean of two experiments in triplicate
Method: (§1) In performing the studies P388 that were sensitive to adriamycin (P388S) and P388 cells that were resistant to adriamycin (P388/ADR) were exposed to various concentrations of anticancer drug either alone or together with 5 μg/mL of modifier or sensitizer for 72 hours.
(§2) The P388 murine leukemia cells used in obtaining the data set forth in Table I and Table II were obtained from Southern Research Institute (Birmingham, Ala.) and were cultured from ascites fluids of tumor-bearing DMA/2 mice and maintained in Fischer's medium supplemented with 10% horse serum, 10 μM 2-mercaptoethanol, and gentamycin (50 μg/mL). Cells were counted with a Model ZF Coulter Counter (Coulter Electronics, Inc., Hialeah, Fla.). Viability was determined by trypan blue exclusion. The general methodology is described by W. D. Klohs, et al, Cancer Research 46, 4352-4356 (September 1986) and W. D. Klohs, et al, J. Nat'l. Cancer Inst. 75, 353-359 (1985).

P388/ADR cells = assay: 72-hour growth inhibition of adriamycin-resistant P388/ADR cells by anticancer drug alone or with modifier (Table I); conditions: Mus musculus
Method: as §1, §2

P388R cells [1] = assay: Potentiation of adriamycin activity and cell growth in P388 resistant cells (Table II); conditions: for Degree of ADR Potentiation in P388R: footnote a (drawing 3)
Method: as §2, with “The general methodology is described by W. D. Klohs, et al, Cancer Research 46, 4352-4356 (September 1986) and W. D. Klohs, et al, J. Nat'l.” left out, “Inst.” for “Inst. 75, 353-359 (1985).”

P388R cells [2] = assay: Comparative chemosensitization studies in resistant P388R cells; conditions: for effect of serum proteins on chemosensitizing activity: MDR cells
Method: as §1, §2

MDR P388 cells = assay: Intracellular drug levels in MDR P388 cells; conditions: mechanism of chemosensitization
[3] = P388S, anticancer drug alone, modifier none, read-out: ID50 (concentration that inhibits 72-hour cell growth by 50%)
[4] = P388S, anticancer drug with modifier CsA (cyclosporin A) 5 μg/mL, read-out: ID50 (concentration that inhibits 72-hour cell growth by 50%)
[5] = P388S, anticancer drug with modifier TIOP (tioperidone) 5 μg/mL, read-out: ID50 (concentration that inhibits 72-hour cell growth by 50%)
[6] = P388S, anticancer drug with modifier VER (verapamil) 5 μg/mL, read-out: ID50 (concentration that inhibits 72-hour cell growth by 50%)
[7] = anticancer drug alone, modifier none, mean of two experiments in triplicate, read-out: ID50 (concentration that inhibits 72-hour cell growth by 50%)
[8] = anticancer drug with modifier CsA (cyclosporin A) 5 μg/mL, mean of two experiments in triplicate, read-out: ID50 (concentration that inhibits 72-hour cell growth by 50%)
[9] = anticancer drug with modifier TIOP (tioperidone) 5 μg/mL, mean of two experiments in triplicate, read-out: ID50 (concentration that inhibits 72-hour cell growth by 50%)
[10] = anticancer drug with modifier VER (verapamil) 5 μg/mL, mean of two experiments in triplicate, read-out: ID50 (concentration that inhibits 72-hour cell growth by 50%)

Row | SMILES | pIC50 (P388S cells; [3]) | pIC50 (P388S cells; [4]) | pIC50 (P388S cells; [5]) | pIC50 (P388S cells; [6]) | pIC50 (P388/ADR cells; [7]) | pIC50 (P388/ADR cells; [8]) | pIC50 (P388/ADR cells; [9]) | pIC50 (P388/ADR cells; [10]) | effect of serum proteins on chemosensitizing activity (P388R cells [2]) | further results
1 | COc1cccc2c1C(=O)c1c(O)c3c(c(O)c1C2=O)C[C@@](O)(C(C)=O)C[C@@H]3O[C@H]1C[C@H](N)[C@H](O)[C@H](C)O1 [Daunomycin] | 7.01 | 7.02 | 7.02 | 7.03 | 5.56 | 6.97 | 6.99 | 6.48 |  | 
2 | COc1cc([C@@H]2c3cc4c(cc3[C@@H](O[C@@H]3O[C@@H]5CO[C@@H](C)O[C@H]5[C@H](O)[C@H]3O)[C@H]3COC(=O)[C@H]23)OCO4)cc(OC)c1O [Etoposide] |  |  |  |  |  |  |  |  |  | pIC50 (P388S cells; read-out: ID50 (concentration that inhibits 72-hour cell growth by 50%), P388S, anticancer drug alone, modifier none): 7.62; pIC50 (P388S cells; read-out: ID50 (concentration that inhibits 72-hour cell growth by 50%), P388S, anticancer drug with modifier CsA (cyclosporin A) 5 μg/mL): 7.70; pIC50 (P388S cells; read-out: ID50 (concentration that inhibits 72-hour cell growth by 50%), P388S, anticancer drug with modifier TIOP (tioperidone) 5 μg/mL): 7.67; pIC50 (P388S cells; read-out: ID50 (concentration that inhibits 72-hour cell growth by 50%), P388S, anticancer drug with modifier VER (verapamil) 5 μg/mL): 7.70; pIC50 (P388/ADR cells; read-out: ID50 (concentration that inhibits 72-hour cell growth by 50%), P388/ADR, anticancer drug alone, modifier none, mean of two experiments in triplicate): 5.29; pIC50 (P388/ADR cells; read-out: ID50 (concentration that inhibits 72-hour cell growth by 50%), P388/ADR, anticancer drug with modifier CsA (cyclosporin A) 5 μg/mL, mean of two experiments in triplicate): 6.60; pIC50 (P388/ADR cells; read-out: ID50 (concentration that inhibits 72-hour cell growth by 50%), P388/ADR, anticancer drug with modifier TIOP (tioperidone) 5 μg/mL, mean of two experiments in triplicate): 6.36; pIC50 (P388/ADR cells; read-out: ID50 (concentration that inhibits 72-hour cell growth by 50%), P388/ADR, anticancer drug with modifier VER (verapamil) 5 μg/mL, mean of two experiments in triplicate): 6.06
3 | CCCSc1ccccc1N1CCN(CCCCn2c(=O)[nH]c3ccccc3c2=O)CC1 [Example 1, 3-[4-[4-[2-(propylthio)phenyl]-1-piperazinyl]butyl-2,4-(1H,3H)-quinazolinedione (tioperidone)monohydrochloride] |  |  |  |  |  |  |  |  | does not appear to be altered by serum proteins | effect on adriamycin activity in drug-sensitive parent P388S cells (P388S cells; modifier with adriamycin): little effect; activity at 5 µM (P388R cells [1]; Mus musculus, P388, test compound at 5 μM, read-out: % of Control Cell Growth): 100%; activity at 10 µM (P388R cells [1]; Mus musculus, P388, test compound at 10 μM, read-out: % of Control Cell Growth): 98%; Degree of ADR Potentiation in P388R (P388R cells [1]; test compound at 5 μM with adriamycin): 20.8; Degree of ADR Potentiation in P388R (P388R cells [1]; test compound at 10 μM with adriamycin): 44.7; potentiating the activity of adriamycin in P388R cells (P388R cells [2]; compared with verapamil, amiodarone and cyclosporin A): superior to all of the other agents; sensitization of P388R cells to vincristine, trimetrexate, and CI-937 (P388R cells [2]; modifier with vincristine, trimetrexate or CI-937): fully sensitized; effect on intracellular drug levels in MDR P388 cells (MDR P388 cells): increasing the intracellular drug levels
4 | COc1cc(NCc2ccc3nc(N)nc(N)c3c2C)cc(OC)c1OC [Trimetrexate] | 7.92 | 7.96 | 7.92 | 7.92 | 6.57 | 7.92 | 7.85 | 7.54 |  | 
5 | CC[C@]1(O)C[C@H]2CN(CCc3c([nH]c4ccccc34)[C@@](C(=O)OC)(c3cc4c(cc3OC)N(C=O)[C@H]3[C@@](O)(C(=O)OC)[C@H](OC(C)=O)[C@]5(CC)C=CCN6CC[C@]43[C@@H]65)C2)C1 [Vincristine] | 7.68 | 7.68 | 7.70 | 7.68 | 6.26 | 7.57 | 7.66 | 7.52 |  | 
6 | CCCCc1oc2ccccc2c1C(=O)c1cc(I)c(OCCN(CC)CC)c(I)c1 [amiodarone, reference compound] |  |  |  |  |  |  |  |  | diminished by binding to serum proteins | 
